These results are taken from US9969737B2, “Fluorescent carbapenems” (Hans Rudolf Pfaendler, priority 2010, dated 2018).

The conditions of data set [1]: comparison; cited from earlier work.
Data set [2] relates to Klebsiella pneumoniae (VIM-1, Heidelberg). Briefly: Detection of metallo-carbapenemases in PBS during incubation. The settings on record: 100 μg, five drops inoculum McFarland 0.5, over night at 37° C. The class given is cell-based. As to the method:
(§1) Detection of metallo-carbapenemases by fluorogenic potassium-(4S,5R,6S)-3-(4-acetyl-phenyl)-6-((1′R)-hydroxy-ethyl)-4-methyl-7-oxo-1-aza-bicyclo[3.2.0]hept-2-ene-2-carboxylate in PBS during incubation
(§2) Bacterial strains Klebsiella pneumoniae (VIM-1, Heidelberg) and Pseudomonas aeruginosa (IMP, Heidelberg) were grown over night at 37° C. in Mueller-Hinton-Broth (10 ml). To each PBS (1 ml) of fluorogenic carbapenem (100 μg) were added five drops of corresponding inoculum (McFarland 0.5).

Data set [3] deals with Pseudomonas aeruginosa (IMP, Heidelberg). Described as above. The class given is cell-based. The settings on record: 100 μg, five drops inoculum McFarland 0.5, over night at 37° C. As to the method: as §1, §2
Data set [4] addresses T1, Klebsiella pneumoniae carbapenemases (KPC), KPC-2 (Klebsiella pneumoniae, UniProt Q9F663).
T1 construct: endogenous in cells; host or cells: Klebsiella pneumoniae clinical strain (KPC-2, Heidelberg), lysed by sonication
Briefly: Detection of KPC carbapenemase during sonication with glass beads. In kind it is biochemical. The settings on record: sonication with glass beads in ultrasound bath, 100 μg, treatment for 45 min. As to the method:
Detection of Klebsiella pneumoniae carbapenemases (KPC) by fluorogenic potassium-(4S,5R,6S)-3-(4-acetyl-phenyl)-6-((1′R)-hydroxy-ethyl)-4-methyl-7-oxo-1-aza-bicyclo[3.2.0]hept-2-ene-2-carboxylate during physical disruption by sonication with glass beads
Bacterial strain Klebsiella pneumoniae (producing KPC-2, Heidelberg) was grown over night at 37° C. in Mueller-Hinton-Broth (10 ml). To a sample (1 ml, McFarland 0.5) were added fluorogenic carbapenem (100 μg) and glass beads (100 mg, Sigma-Aldrich, G9018, 150-212 μm, unwashed) using a 5-ml-glass-tube with a plane bottom. The cells were lysed by sonication with a commercial available ultrasound bath.

The subject of data set [5] is Escherichia coli (Oxa-48). Kind of data set: Detection of carbapenemases during incubation in Mueller-Hinton-Broth. In kind it is cell-based. The settings on record: McFarland 0.5, 100 μg, over night at 37° C. As to the method:
(§3) Detection of carbapenemases by fluorogenic potassium-(4S,5R,6S)-3-(4-acetyl-phenyl)-6-((1′R)-hydroxy-ethyl)-4-methyl-7-oxo-1-aza-bicyclo[3.2.0]hept-2-ene-2-carboxylate during incubation
(§4) Bacterial strains Escherichia coli (ESBL-1, Heidelberg), Escherichia coli (ESBL-2, Heidelberg), Escherichia coli (Oxa-48), Klebsiella pneumoniae (KPC-2, Heidelberg) Klebsiella pneumoniae (VIM-1, Heidelberg), Pseudomonas aeruginosa (GES-2, Heidelberg), Pseudomonas aeruginosa (IMP, Heidelberg) and Pseudomonas aeruginosa (VIM-2, Heidelberg) were grown over night at 37° C. in Mueller-Hinton-Broth (10 ml). To each sample (1 ml, McFarland 0.5) was added fluorogenic carbapenem (100 μg).

In data set [6] the test system is Klebsiella pneumoniae (VIM-1, Heidelberg). Described as above. In kind it is cell-based. The settings on record: McFarland 0.5, 100 μg, over night at 37° C. As to the method:
as §3, §4

Data set [7] relates to Pseudomonas aeruginosa (VIM-2, Heidelberg). The description is as above. In kind it is cell-based. The settings on record: McFarland 0.5, 100 μg, over night at 37° C. As to the method:
as §3, §4

Data set [8] has as its system Escherichia coli (ESBL-2, Heidelberg). The data set is described as above. In kind it is cell-based. Particulars: ESBL-producer, McFarland 0.5, 100 μg, over night at 37° C. As to the method: as §3, §4
Data set [9] concerns Pseudomonas aeruginosa (GES-2, Heidelberg). The data set is described as above. The class given is cell-based. Particulars: McFarland 0.5, 100 μg, over night at 37° C. As to the method:
as §3, §4

The test system of data set [10] is Klebsiella pneumoniae (KPC-2, Heidelberg). Described as above. The class given is cell-based. The settings on record: McFarland 0.5, 100 μg, over night at 37° C. As to the method: as §3, §4
For data set [11], the system named is Escherichia coli (ESBL-1, Heidelberg). The description is as above. The class given is cell-based. The settings on record: ESBL-producer, McFarland 0.5, 100 μg, over night at 37° C. As to the method: as §3, §4
For data set [12], the system named is Pseudomonas aeruginosa (IMP, Heidelberg). The data set is described as above. The class given is cell-based. The settings on record: McFarland 0.5, 100 μg, over night at 37° C. As to the method: as §3, §4
The next data set deals with T2, Oxa-48-carbapenemases (Klebsiella pneumoniae, UniProt Q6XEC0).
T2 construct: endogenous in cells; host or cells: Escherichia coli strain (producing Oxa-48, Heidelberg), with or without imipenem induction, lysed by sonication
T2 sequence (Q6XEC0 23-265 limits assumed): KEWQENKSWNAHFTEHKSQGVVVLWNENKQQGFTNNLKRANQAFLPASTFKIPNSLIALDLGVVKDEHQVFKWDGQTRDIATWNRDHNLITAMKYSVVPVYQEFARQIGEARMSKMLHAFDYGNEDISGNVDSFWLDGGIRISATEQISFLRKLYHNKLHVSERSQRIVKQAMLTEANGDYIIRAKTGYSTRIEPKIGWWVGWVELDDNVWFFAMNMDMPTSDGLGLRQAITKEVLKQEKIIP
Briefly: Detection of inducible (Oxa-type) carbapenemases after sonication. The class given is biochemical, Escherichia coli. As to the method:
Detection of inducible (Oxa-type) carbapenemases of Escherichia coli by fluorogenic potassium-(4S,5R,6S)-3-(4-acetyl-phenyl)-6-((1′R)-hydroxy-ethyl)-4-methyl-7-oxo-1-aza-bicyclo[3.2.0]hept-2-ene-2-carboxylate after physical disruption by sonication
Bacterial strain Escherichia cog (producing Oxa-48, Heidelberg) was grown over night at 37° C. (220 rpm) in Mueller-Hinton-Broth (10 ml) using a 45-ml-Falcon tube. A sample (1 ml, McFarland 10) was diluted in Mueller-Hinton-Broth (10 ml) and incubated with Imipenem (2 μg/ml) for 4 h using a 45-ml-Falcon tube. After centrifugation at 13.000 rpm (2 min, 1 ml for analytical studies), the sample was washed once with PBS (1 ml) and resuspended in PBS (500 μl). Subsequently the cells were lysed by sonication with a Bandelin Sonopuls (5×15 s), pulsed at 80% max. power. Further PBS (500 μl) and fluorogenic carbapenem (100 μg) were added.

Data set [13] deals with Pseudomonas aeruginosa DSM 1117 (no resistance). Kind of data set: Detection of carbapenemases during chemical lysis. The class given is biochemical. Particulars: McFarland 10 in detergent buffer solution, 100 μg, 6 h at 37° C. As to the method:
(§5) Detection of carbapenemases by fluorogenic potassium-(4S,5R,6S)-3-(4-acetyl-phenyl)-6-((1′R)-hydroxy-ethyl)-4-methyl-7-oxo-1-aza-bicyclo[3.2.0]hept-2-ene-2-carboxylate during chemical lysis
(§6) Bacterial strains Pseudomonas aeruginosa DSM 1117 (no resistance), Pseudomonas aeruginosa (VIM-2, Heidelberg) and Klebsiella pneumoniae (KPC-2, Heidelberg) were incubated over night at 37° C. on Mueller-Hinton-Agar plates. A sample of each strain was suspended (McFarland 10) in primary-amine-free buffer solution (1 ml) of a detergent from Merck (Germany). Fluorogenic carbapenem (100 μg) was added.

Data set [14] has as its system Pseudomonas aeruginosa (VIM-2, Heidelberg). Kind of data set: Detection of carbapenemases during chemical lysis. In kind it is biochemical. The settings on record: McFarland 10 in detergent buffer solution, 100 μg, 6 h at 37° C. As to the method:
as §5, §6

Data set [15] deals with Klebsiella pneumoniae (KPC-2, Heidelberg). Briefly: Detection of carbapenemases during chemical lysis. The class given is biochemical. The settings on record: McFarland 10 in detergent buffer solution, 100 μg, 6 h at 37° C. As to the method: as §5, §6
Data set [16] deals with T1, Klebsiella pneumoniae carbapenemases (KPC), KPC-2. Briefly: Detection of KPC carbapenemase by fluorogenic carbapenem after physical disruption by sonication. The class given is biochemical. The settings on record: cells lysed by sonication, PBS, 100 μg carbapenem, room temperature for 5 min. As to the method:
Detection of Klebsiella pneumoniae carbapenemases (KPC) by fluorogenic potassium-(4S,5R,6S)-3-(4-acetyl-phenyl)-6-((1′R)-hydroxy-ethyl)-4-methyl-7-oxo-1-aza-bicyclo[3.2.0]hept-2-ene-2-carboxylate after physical disruption by sonication
Bacterial strain Klebsiella pneumoniae (producing KPC-2, Heidelberg) was grown over night at 37° C. (220 rpm) in Mueller-Hinton-Broth (10 ml) using a 45-ml-Falcon tube, harvested by centrifugation at 13.000 rpm (2 min, 1 ml for analytical studies, McFarland 10), washed once with PBS (1 ml), and resuspended in PBS (500 μl). Subsequently the cells were lysed by sonication with a Bandelin Sonopuls (5×15 s), pulsed at 80% max. power. Further PBS (500 μl) and fluorogenic carbapenem (100 μg) were added.

In data set [17] the test system is Escherichia coli (Oxa-48). Kind of data set: Detection of carbapenemases during optimized incubation. In kind it is cell-based. The settings on record: pre-incubated 6 h at 37° C. (220 rpm), 100 μg, over night at 37° C. As to the method:
(§7) Detection of carbapenemases by fluorogenic potassium-(4S,5R,6S)-3-(4-acetyl-phenyl)-6-((1′R)-hydroxy-ethyl)-4-methyl-7-oxo-1-aza-bicyclo[3.2.0]hept-2-ene-2-carboxylate during optimized incubation
(§8) Bacterial strains Escherichia coli (ESBL-1, Heidelberg), Escherichia coli (ESBL-2, Heidelberg), Escherichia coli (Oxa-48), Klebsiella pneumoniae (KPC-2, Heidelberg) Klebsiella pneumoniae (VIM-1, Heidelberg), Pseudomonas aeruginosa (GES-2, Heidelberg), Pseudomonas aeruginosa (IMP, Heidelberg), Pseudomonas aeruginosa (VIM-2, Heidelberg) were incubated for 6 h at 37° C. (220 rpm) in Mueller-Hinton-Broth (10 ml) using 45-ml-Falcon-tubes. To each sample (1 ml) was added fluorogenic carbapenem (100 μg) using 15-ml-Falcon-tubes.

Data set [18] relates to Klebsiella pneumoniae (VIM-1, Heidelberg). The data set is described as above. In kind it is cell-based. The settings on record: pre-incubated 6 h at 37° C. (220 rpm), 100 μg, over night at 37° C. As to the method:
as §7, §8

Data set [19] concerns Pseudomonas aeruginosa (VIM-2, Heidelberg). The description is as above. The class given is cell-based. Particulars: pre-incubated 6 h at 37° C. (220 rpm), 100 μg, over night at 37° C. As to the method: as §7, §8
For data set [20], the system named is Escherichia coli (ESBL-2, Heidelberg). The description is as above. The settings on record: ESBL-producer, pre-incubated 6 h at 37° C. (220 rpm), 100 μg, over night at 37° C. In kind it is cell-based. As to the method: as §7, §8
In data set [21] the test system is Pseudomonas aeruginosa (GES-2, Heidelberg). The data set is described as above. In kind it is cell-based. The settings on record: pre-incubated 6 h at 37° C. (220 rpm), 100 μg, over night at 37° C. As to the method:
as §7, §8

Data set [22] relates to Klebsiella pneumoniae (KPC-2, Heidelberg). The data set is described as above. The class given is cell-based. Particulars: pre-incubated 6 h at 37° C. (220 rpm), 100 μg, over night at 37° C. As to the method: as §7, §8
Data set [23] has as its system Escherichia coli (ESBL-1, Heidelberg). The data set is described as above. In kind it is cell-based. The settings on record: ESBL-producer, pre-incubated 6 h at 37° C. (220 rpm), 100 μg, over night at 37° C. As to the method:
as §7, §8

The subject of data set [24] is Pseudomonas aeruginosa (IMP, Heidelberg). The description is as above. The class given is cell-based. Particulars: pre-incubated 6 h at 37° C. (220 rpm), 100 μg, over night at 37° C. As to the method:
as §7, §8

T1 sequence (Q9F663 25-293 limits assumed): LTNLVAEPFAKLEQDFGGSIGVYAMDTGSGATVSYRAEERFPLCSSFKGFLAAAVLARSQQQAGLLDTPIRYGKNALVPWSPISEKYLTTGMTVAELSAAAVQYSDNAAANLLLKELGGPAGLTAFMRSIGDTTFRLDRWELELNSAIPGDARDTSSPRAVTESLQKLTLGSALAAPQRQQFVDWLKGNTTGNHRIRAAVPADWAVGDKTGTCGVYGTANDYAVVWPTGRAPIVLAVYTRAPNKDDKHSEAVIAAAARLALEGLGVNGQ

Regarding Green Fluorescent Protein, the Stokes shift in data set [1] is on record as 114 nm.
“potassium-(4S,5R,6S)-3-(4-acetyl-phenyl)-6-((1′R)-hydroxy-ethyl)-4-methyl-7-oxo-1-aza-bicyclo[3.2.0]hept-2-ene-2-carboxylate [Example 1]”: the “disappearance of the green-yellow fluorescence colour (UV light λ=366 nm)” value in data set [2], in data set [3], in data set [5], in data set [6], in data set [7] and in data set [9] was “disappearance of the green-yellow fluorescence colour” throughout. Besides, the “disappearance of the green-yellow fluorescence colour (UV light λ=366 nm)” value in data set [10] is listed as “disappearance of the green-yellow fluorescence colour”; in [12], “disappearance of the green-yellow fluorescence colour”; at Oxa-48-carbapenemases (induced with Imipenem (2 μg/ml) for 4 h, lysed by sonication, PBS, room temperature for 5 min) it was “disappearance of the green-yellow fluorescence colour”; in data set [16] it was “disappearance of the green-yellow fluorescence colour”. For the same substance, the “disappearance of the green-yellow fluorescence colour (λ=366 nm)” value in [4], in [14], in data set [15], in data set [17], in data set [18] and in data set [19] was “disappearance of the green-yellow fluorescence colour” throughout. For the same substance, the “disappearance of the green-yellow fluorescence colour (λ=366 nm)” value in [21], in data set [22] and in data set [24] was “disappearance of the green-yellow fluorescence colour” each time. Also, the “change in colour (fluorescence, UV light λ=366 nm)” value in data set [8] and in [11] was “did not show any change in colour” each time. In addition, the “change in fluorescence colour” value at Oxa-48-carbapenemases (non-induced sample, within 30 minutes) is given as “did not show any change in fluorescence colour”. In addition, the “change in fluorescence colour (λ=366 nm)” value in [13], in data set [20] and in data set [23] was “did not show any change in fluorescence colour” each time.
